According to ChEMBL document CHEMBL1201862, “PubChem BioAssay data set” (2004):
Active and inactive are the calls of the source.

Assays:
Streptococcus = test: GAS UMAA2166 growth inhibition – luminescence, BacTiterGlo, counter-screen for streptokinase expression inhibitor project, dose response (AID 1915); assay type: functional, organism-based;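 also: potency for reduction of bacterial viability or growth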
Streptokinase A = molecular target: T1, Streptokinase A (Streptococcus pyogenes serotype M1, UniProt P10520); test: viability-normalized secreted streptokinase activity reduction – plasminogen activation absorbance, OD405, dose response (AID 1914); assay type: functional, Streptococcus pyogenes M1 GAS;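 also: secreted streptokinase activity via plasminogen activation per viability signal from cell pellet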
T1 sequence (P10520 whole entry): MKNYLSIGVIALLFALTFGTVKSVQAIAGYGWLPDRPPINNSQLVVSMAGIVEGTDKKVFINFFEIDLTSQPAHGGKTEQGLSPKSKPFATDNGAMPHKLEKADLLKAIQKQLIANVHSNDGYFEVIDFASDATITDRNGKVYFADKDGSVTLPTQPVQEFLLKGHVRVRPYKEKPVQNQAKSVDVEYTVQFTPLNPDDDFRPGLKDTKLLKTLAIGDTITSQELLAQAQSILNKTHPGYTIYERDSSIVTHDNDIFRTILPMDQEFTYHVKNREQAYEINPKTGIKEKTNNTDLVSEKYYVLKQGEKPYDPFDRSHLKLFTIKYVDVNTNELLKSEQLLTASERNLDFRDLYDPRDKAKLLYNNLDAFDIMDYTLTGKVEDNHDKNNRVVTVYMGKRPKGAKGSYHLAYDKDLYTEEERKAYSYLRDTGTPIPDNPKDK

[1] = molecular target: Serine/threonine-protein kinase PAK 4 (Homo sapiens, UniProt O96013); assay type: functional;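 also: value obtained within a kinome profiling panel in which PAK4 was one of the panel members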
Chain of Serine/threonine-protein kinase PAK 4 (O96013 whole entry): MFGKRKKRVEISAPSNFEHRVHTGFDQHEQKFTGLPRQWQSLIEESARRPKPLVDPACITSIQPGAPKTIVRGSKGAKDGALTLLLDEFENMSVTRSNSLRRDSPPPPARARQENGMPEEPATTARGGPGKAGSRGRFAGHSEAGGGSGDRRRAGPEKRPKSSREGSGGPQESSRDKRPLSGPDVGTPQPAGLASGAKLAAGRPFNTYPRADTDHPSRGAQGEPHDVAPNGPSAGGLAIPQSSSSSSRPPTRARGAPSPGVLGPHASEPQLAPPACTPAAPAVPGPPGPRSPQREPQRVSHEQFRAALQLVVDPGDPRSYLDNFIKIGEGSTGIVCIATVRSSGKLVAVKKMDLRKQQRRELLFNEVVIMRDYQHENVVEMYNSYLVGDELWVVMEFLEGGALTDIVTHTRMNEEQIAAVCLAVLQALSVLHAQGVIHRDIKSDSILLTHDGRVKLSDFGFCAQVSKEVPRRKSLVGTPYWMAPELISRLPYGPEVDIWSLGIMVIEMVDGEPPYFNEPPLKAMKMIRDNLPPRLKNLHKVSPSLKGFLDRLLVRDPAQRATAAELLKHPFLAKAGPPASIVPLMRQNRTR

[2] = molecular target: T2, Tyrosine-protein kinase JAK3 (Homo sapiens, UniProt P52333); assay type: functional
T2 sequence (P52333 whole entry): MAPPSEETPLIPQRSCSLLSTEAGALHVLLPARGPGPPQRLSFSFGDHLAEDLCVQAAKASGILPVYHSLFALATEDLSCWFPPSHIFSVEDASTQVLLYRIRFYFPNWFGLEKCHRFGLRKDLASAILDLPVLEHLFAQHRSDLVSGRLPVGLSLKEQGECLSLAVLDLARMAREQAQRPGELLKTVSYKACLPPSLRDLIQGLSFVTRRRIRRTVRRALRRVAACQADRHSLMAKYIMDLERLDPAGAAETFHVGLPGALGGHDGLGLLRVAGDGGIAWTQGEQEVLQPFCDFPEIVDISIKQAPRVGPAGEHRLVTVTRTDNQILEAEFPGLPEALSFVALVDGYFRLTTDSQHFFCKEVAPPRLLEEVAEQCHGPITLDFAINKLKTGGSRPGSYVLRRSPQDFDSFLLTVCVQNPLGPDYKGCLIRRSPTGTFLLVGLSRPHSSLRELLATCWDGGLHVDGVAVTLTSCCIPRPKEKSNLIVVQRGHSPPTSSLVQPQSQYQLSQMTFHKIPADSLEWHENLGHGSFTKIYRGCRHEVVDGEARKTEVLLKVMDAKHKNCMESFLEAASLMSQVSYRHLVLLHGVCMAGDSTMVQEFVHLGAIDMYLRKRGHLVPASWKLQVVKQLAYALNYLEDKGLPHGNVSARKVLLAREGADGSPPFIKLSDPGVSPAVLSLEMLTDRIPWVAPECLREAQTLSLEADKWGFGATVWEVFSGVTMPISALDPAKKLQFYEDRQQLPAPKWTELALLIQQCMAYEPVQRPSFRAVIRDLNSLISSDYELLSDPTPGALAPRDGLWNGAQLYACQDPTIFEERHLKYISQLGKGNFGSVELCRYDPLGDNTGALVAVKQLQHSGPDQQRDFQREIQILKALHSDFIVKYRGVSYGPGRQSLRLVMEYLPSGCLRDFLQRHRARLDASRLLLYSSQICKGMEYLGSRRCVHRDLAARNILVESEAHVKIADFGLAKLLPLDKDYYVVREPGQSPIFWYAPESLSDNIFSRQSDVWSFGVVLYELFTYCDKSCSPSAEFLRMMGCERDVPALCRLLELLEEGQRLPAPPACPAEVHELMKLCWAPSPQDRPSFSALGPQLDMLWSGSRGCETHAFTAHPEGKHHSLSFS

[3] = molecular target: Tyrosine-protein kinase BTK (Homo sapiens, UniProt Q06187); assay type: functional
Chain of Tyrosine-protein kinase BTK (Q06187 whole entry): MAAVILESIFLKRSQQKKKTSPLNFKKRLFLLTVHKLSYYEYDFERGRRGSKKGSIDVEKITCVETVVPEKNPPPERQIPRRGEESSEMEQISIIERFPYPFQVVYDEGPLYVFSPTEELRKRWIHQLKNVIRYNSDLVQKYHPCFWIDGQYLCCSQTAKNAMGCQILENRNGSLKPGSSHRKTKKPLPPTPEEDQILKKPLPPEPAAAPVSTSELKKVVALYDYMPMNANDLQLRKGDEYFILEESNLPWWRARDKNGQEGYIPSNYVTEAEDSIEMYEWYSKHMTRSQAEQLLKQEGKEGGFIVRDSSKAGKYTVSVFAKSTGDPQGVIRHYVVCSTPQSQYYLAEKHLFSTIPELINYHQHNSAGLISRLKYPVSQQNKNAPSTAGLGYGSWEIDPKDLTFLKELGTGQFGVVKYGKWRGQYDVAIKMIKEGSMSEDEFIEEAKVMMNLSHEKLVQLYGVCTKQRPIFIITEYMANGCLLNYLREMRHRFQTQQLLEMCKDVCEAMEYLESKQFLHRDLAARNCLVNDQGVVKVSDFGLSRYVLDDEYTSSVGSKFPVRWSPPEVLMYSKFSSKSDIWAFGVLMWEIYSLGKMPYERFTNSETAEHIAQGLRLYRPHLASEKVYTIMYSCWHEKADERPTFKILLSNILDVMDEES

[4] = molecular target: T3, Inhibitor of nuclear factor kappa-B kinase subunit epsilon (Homo sapiens, UniProt Q14164); test: Navigating the Kinome. Panel member name: IKBKE; assay type: functional
T3 sequence (Q14164 whole entry): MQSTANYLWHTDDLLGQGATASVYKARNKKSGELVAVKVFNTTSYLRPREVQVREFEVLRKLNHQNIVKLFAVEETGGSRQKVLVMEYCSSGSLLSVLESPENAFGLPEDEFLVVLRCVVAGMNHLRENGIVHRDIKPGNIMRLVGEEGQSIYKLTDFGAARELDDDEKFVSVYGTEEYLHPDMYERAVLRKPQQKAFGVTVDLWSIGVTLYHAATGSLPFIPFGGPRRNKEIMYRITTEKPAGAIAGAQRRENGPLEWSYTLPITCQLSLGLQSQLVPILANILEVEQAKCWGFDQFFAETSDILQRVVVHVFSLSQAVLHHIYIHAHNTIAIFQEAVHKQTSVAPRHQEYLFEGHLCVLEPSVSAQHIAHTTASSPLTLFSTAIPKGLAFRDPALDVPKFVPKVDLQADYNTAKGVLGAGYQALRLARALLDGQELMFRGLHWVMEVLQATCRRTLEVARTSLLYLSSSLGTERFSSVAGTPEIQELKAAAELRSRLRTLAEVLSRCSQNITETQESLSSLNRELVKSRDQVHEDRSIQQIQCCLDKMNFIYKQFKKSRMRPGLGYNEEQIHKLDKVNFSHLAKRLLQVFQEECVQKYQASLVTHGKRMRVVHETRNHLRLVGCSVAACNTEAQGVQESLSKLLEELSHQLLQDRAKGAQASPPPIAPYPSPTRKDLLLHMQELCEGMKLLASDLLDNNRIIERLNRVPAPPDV

[5] = molecular target: Dual specificity tyrosine-phosphorylation-regulated kinase 1A (Homo sapiens, UniProt Q13627); assay type: functional;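 also: measured against DYRK1A as one member of a broad kinome profiling panel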
[6] = molecular target: Dual specificity protein kinase CLK2 (Homo sapiens, UniProt P49760); assay type: functional
Chain of Dual specificity protein kinase CLK2 (P49760 whole entry): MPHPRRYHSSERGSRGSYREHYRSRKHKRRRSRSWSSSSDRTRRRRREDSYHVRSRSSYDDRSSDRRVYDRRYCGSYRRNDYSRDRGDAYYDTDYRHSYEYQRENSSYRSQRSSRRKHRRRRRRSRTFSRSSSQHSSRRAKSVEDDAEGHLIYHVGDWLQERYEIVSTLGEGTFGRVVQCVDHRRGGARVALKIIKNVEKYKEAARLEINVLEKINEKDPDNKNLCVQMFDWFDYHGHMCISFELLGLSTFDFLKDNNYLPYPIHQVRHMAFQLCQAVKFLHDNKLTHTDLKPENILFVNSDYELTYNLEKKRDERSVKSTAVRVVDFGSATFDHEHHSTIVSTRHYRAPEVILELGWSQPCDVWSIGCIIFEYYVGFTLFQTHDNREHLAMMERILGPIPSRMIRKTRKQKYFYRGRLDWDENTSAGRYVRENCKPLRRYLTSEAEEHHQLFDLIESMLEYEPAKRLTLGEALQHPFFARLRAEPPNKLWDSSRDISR

[7] = molecular target: Tyrosine-protein kinase Lck (Homo sapiens, UniProt P06239); assay type: functional;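 also: lck was assayed as one member of a kinase panel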
Chain of Tyrosine-protein kinase Lck (P06239 whole entry): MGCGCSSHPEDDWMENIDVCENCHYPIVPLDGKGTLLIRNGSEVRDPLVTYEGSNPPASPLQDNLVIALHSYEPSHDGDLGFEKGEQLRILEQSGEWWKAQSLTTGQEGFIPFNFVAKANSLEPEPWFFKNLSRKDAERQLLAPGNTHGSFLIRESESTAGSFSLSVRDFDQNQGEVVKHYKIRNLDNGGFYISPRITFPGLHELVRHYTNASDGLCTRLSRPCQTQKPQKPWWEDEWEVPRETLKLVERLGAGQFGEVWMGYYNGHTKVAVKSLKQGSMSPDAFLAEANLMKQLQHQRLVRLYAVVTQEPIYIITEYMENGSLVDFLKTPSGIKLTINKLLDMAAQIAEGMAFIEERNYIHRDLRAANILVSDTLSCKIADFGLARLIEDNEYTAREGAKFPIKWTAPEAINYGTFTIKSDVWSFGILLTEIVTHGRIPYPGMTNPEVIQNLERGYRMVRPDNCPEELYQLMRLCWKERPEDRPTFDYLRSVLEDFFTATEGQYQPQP

Activated CDC42 kinase 1 = Activated CDC42 kinase 1 (Homo sapiens, UniProt Q07912); test: Navigating the Kinome. Panel member name: ACK1; assay type: functional
Chain of Activated CDC42 kinase 1 (Q07912 whole entry): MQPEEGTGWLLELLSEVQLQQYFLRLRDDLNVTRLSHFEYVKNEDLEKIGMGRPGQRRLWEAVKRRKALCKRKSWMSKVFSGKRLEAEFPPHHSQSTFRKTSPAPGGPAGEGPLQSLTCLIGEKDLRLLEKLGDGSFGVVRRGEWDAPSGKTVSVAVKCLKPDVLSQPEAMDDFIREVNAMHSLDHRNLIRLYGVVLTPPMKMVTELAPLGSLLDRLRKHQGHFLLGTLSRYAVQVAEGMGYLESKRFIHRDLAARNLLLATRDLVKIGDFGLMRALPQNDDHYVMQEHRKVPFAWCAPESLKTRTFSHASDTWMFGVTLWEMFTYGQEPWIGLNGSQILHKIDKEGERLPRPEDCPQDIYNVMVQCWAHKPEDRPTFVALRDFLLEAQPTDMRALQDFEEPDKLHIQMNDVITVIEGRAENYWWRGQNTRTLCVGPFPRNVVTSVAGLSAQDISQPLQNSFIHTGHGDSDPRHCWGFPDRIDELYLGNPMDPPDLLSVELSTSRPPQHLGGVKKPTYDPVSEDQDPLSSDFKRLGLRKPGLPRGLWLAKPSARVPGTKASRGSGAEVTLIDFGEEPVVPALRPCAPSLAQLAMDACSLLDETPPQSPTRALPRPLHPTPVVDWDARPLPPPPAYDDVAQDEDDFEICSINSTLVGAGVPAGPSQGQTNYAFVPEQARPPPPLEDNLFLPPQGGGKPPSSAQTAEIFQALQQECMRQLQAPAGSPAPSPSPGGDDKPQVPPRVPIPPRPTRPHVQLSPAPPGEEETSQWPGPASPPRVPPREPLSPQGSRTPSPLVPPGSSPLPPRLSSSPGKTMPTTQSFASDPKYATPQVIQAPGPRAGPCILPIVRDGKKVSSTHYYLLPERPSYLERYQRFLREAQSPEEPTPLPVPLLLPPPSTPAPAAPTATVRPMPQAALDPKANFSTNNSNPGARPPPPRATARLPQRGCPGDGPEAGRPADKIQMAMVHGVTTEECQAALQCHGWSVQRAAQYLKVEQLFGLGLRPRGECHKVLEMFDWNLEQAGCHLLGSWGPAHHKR

[8] = molecular target: Fibroblast growth factor receptor 1 (Homo sapiens, UniProt P11362); assay type: functional
Chain of Fibroblast growth factor receptor 1 (P11362 whole entry): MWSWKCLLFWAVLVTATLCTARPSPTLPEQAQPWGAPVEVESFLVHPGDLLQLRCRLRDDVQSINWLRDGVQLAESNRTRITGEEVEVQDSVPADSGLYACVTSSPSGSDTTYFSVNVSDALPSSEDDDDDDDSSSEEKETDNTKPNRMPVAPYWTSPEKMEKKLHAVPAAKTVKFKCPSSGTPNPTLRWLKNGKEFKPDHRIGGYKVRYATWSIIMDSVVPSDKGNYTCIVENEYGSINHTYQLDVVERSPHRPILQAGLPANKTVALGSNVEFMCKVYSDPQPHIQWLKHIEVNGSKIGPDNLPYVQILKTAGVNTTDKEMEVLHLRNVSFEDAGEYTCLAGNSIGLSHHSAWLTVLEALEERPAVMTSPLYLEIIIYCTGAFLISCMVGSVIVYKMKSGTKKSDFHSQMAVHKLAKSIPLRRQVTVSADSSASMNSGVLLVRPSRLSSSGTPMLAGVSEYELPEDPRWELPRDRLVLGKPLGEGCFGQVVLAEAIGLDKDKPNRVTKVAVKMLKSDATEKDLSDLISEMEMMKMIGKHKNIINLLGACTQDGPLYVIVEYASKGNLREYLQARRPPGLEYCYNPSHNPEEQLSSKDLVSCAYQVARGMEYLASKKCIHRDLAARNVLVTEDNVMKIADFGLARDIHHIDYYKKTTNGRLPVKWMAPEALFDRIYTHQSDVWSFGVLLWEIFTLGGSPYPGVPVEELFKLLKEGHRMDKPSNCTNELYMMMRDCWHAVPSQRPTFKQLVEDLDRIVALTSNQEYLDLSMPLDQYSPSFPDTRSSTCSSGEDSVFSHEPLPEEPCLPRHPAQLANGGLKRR

[9] = molecular target: Mitogen-activated protein kinase 9 (Homo sapiens, UniProt P45984); assay type: functional;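 also: value from a kinome panel profiling assay, MAPK9 panel entry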
Chain of Mitogen-activated protein kinase 9 (P45984 whole entry): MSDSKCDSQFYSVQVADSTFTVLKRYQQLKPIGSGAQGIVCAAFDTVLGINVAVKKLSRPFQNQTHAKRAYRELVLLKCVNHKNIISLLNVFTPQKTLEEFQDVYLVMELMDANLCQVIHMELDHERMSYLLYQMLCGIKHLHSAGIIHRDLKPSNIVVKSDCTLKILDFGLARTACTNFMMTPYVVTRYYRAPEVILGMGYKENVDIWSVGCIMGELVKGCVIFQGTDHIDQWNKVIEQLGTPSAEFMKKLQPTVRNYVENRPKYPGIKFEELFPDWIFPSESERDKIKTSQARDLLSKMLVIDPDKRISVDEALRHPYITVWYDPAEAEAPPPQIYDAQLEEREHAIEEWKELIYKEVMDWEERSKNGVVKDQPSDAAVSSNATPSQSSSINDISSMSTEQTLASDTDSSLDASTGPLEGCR

[10] = molecular target: Macrophage-stimulating protein receptor (Homo sapiens, UniProt Q04912); test: Navigating the Kinome. Panel member name: MST1R; assay type: functional

SMILES | EC50 (Streptococcus) | EC50 (Streptokinase A) | Ki [1] | Ki [2] | Ki [3] | Ki [4] | Ki [5] | Ki [6] | Ki [7] | Ki (Activated CDC42 kinase 1) | Ki [8] | Ki [9] | Ki [10] | other results
CCOC(=O)c1ccc(NC2=CC(=O)C(=O)c3ccccc32)cc1 | 9.24 µM (active) | 9.93 µM (active) |  |  |  |  |  |  |  |  |  |  |  | 
CCCCCCCCCCCCCCCC[N+](C)(C)C | 7.77 µM (active) | 19.6 µM (active) |  |  |  |  |  |  |  |  |  |  |  | 
NC1CCC(Nc2nc(Cl)cc(-c3c[nH]c4ncccc34)n2)CC1 (stereo unspecified) |  |  | 0.0398 µM (active) | 0.158 µM (active) | > 6.31 µM (inactive) | 2.51 µM (active) | 0.0251 µM (active) | 0.00794 µM (active) | 3.16 µM (active) | 2 µM (active) | 3.98 µM (active) | 3.16 µM (active) | 0.0631 µM (active) | pKi [1]: 7.4; pKi [2]: 6.8; pKi [4]: 5.6; pKi [5]: 7.6; pKi [6]: 8.1; pKi [7]: 5.5; pKi (Activated CDC42 kinase 1): 5.7; pKi [8]: 5.4; pKi [9]: 5.5; pKi [10]: 7.2
O=C(O)C1CN(Cc2ccc(OCc3ccccc3)cc2Cl)C1 |  |  | > 5.01 µM (inactive) | > 5.01 µM (inactive) | > 6.31 µM (inactive) | > 3.16 µM (inactive) | > 2 µM (inactive) | > 3.98 µM (inactive) | > 6.31 µM (inactive) | > 3.98 µM (inactive) | > 3.98 µM (inactive) | > 3.98 µM (inactive) | > 3.98 µM (inactive) | 
